Like-named read-outs stand apart in the source and are kept apart here.
Experiments:
[1] = molecular target: T1, RORγt (Mus musculus, UniProt P51450); experiment: RORγt S2 cell reporter assay (Gal4-RORγt fusion, UAS-luciferase); type: cell-based; details: for Emax: % of the maximal response of control inhibitor (Digoxin), set at 100%, read-out: Efficacy (%); for IC50: Drosophila S2 cells, luciferase reporter, read-out: IC50
T1 construct: expressed in transfected cells; the other entry of the earlier key: GAL4 (P04386, Regulatory protein GAL4)
T1 sequence (P51450 with tags, fused parts or gaps): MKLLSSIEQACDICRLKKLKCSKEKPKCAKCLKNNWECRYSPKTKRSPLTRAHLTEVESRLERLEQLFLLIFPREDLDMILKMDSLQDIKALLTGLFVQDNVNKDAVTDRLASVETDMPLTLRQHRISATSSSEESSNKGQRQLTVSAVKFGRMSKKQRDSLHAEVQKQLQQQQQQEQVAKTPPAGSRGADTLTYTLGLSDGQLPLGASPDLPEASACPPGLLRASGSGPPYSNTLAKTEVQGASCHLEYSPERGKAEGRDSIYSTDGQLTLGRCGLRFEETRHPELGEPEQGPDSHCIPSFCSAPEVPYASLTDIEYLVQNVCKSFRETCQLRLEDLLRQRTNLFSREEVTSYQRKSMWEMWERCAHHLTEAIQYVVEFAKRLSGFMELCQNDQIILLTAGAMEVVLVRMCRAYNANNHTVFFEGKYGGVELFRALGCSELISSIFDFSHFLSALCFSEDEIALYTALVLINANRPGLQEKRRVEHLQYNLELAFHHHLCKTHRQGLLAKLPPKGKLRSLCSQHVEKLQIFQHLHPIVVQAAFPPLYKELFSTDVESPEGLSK
Excerpt: Methods: The Drosophila S2 cell line was originally purchased from Invitrogen and was maintained in Schneider's medium supplemented with 10% heat-inactivated bovine fetal calf serum and antibiotics (Invitrogen). […] The resulting chimeric gene was subcloned into the copper inducible pMT/V5-His A vector (available from Invitrogen).
Renilla luciferase construct under the polIII promoter was obtained from Dr. Dasgupta's laboratory (NYU medical center). In order to generate stable cell lines, cells were co-transfected with pMT-G4DBD-RORγt, pMT-G4DBD-RORα, pMT-G4DBD-DHR3, or pMT-G4DBDVP16 and pHygro plasmids (Invitrogen) and screened for resistant colonies in the presence of hygromycin (0.3 mg/mL). […] Using similar methods, stable clones with genomic integration of the luciferase reporters and other reporters were generated such as pMT-RORα_luc, pMT-DHR3_luc, or pMT-VP16_luc.
Methods: 600 G4DBD-RORγ/γt-luc reporter (#25) or G4DBD-VP16-luc reporter cells were distributed into each well of 1,536-well white bottom plates in 4 μl S2 cell culture volume containing hygromicin (300 μg/ml) and puromycin (2 μg/ml). […] After one-hour incubation, 1 of culture medium solution containing copper sulfate (to final 0.7 mM) and 10 μM RORγ/γt antagonists were added to each well. After 20-hour incubation at ambient temperature, 1.5 μl firefly luciferase detection mix was added and the luciferase activities were measured in 10 min. ViewLux luminometers were used for measuring luciferase signal.
A cell-based reporter assay was used to detect RORγt-mediated activity. This assay, called RORγt employed Drosophila Schneider cells that were stably transfected with two vectors: a gene expressing a fusion of the Gal4 DNA binding domain and RORγt transactivation domain under the control of the metallothionine promoter and a Photinus luciferase reporter regulated by the Gal4 binding site enhancer, UAS. […] Cells (600/well) were dispensed into white solid 1536-well plates (Greiner) using a solenoid-based dispenser. Following transfer of […] compound or DMSO vehicle by a pin tool, the plates were incubated 1 hr at ambient temperature, and 1 uL/well copper sulfate (700 uM final concentration) was added. The plates were centrifuged 15 s at 1000 RPM and incubated 20 hr at ambient temperature. After addition of 1.5 uL Photinus luciferase detection reagent, the plates were incubated 10 min at ambient temperature and then read by a ViewLux (Perkin Elmer) to detect luminescence. […] Efficacy is expressed as % of the maximal response of control inhibitor (Digoxin), set at 100%.

[2] = Half-life in Human Liver Microsomes (HLM); type: in vitro ADME; details: for % Remaining @ 60 min / half-life at 1 μM / microsomal CLint at 1 μM: 1 μM compound, 0.78 mg/mL HLM, 37° C.; for half-life at 1 μM / microsomal CLint at 1 μM: human, human liver microsomes, pH 7.4; for half-life at 1 μM: Half-life=ln 2/k; for microsomal CLint at 1 μM: read-out: CLint (uM/Min/mg proteins)
Experimental: Test compounds (1 μM) are incubated with 3.3 mM MgCl2 and 0.78 mg/mL HLM (HL101) in 100 mM potassium phosphate buffer (pH 7.4) at 37° C. on the 96-deep well plate. The reaction mixture is split into two groups, a non-P450 and a P450 group. NADPH is only added to the reaction mixture of the P450 group. An aliquot of samples of the P450 group is collected at 0, 10, 30, and 60 min time points, where the 0 min time point indicated the lime at which NADPH is added into the reaction mixture of the P450 group. […] Collected aliquots are extracted with acetonitrile solution containing an internal standard. […] The compound concentration in supernatant is measured by LC/MS/MS system.
The half-life value is obtained by plotting the natural logarithm of the peak area ratio of compounds/internal standard versus time. The slope of the line of best fit through the points yields the rate of metabolism (k). This is converted to a half-life value using following equations: Half-life=ln 2/k

SMILES | Emax ([1]; Table 1) | IC50 ([1]; Table 1) | also measured
COc1cc(O)c(C(CC(=O)N2CC(C)CC(C)C2)c2csc3ccccc23)c(OC)c1 (stereo not drawn) [Compound 79] | -90.8% | 1000 to 10000 nM | –
COc1cc(O)c(C(CC(=O)N2C[C@H](C)C[C@H](C)C2)c2ccc(C(=O)O)cc2)c(OC)c1 (stereo partly drawn) [Compound 202, 4-(3-(3,5-cis-Dimethylpiperidin-1-yl)-1-(2-hydroxy-4,6-dimethoxyphenyl)-3-oxopropyl)benzoic acid] | – | – | IC50 ([1]; Table 1A): < 1000 nM
COc1cc(O)c(C(CC(=O)N2C[C@H](C)C[C@H](C)C2)c2c[nH]c(C)n2)c(OC)c1 (stereo partly drawn) [Compound 203] | – | – | IC50 ([1]; Table 1A): 1000 to 10000 nM
COc1cc(OC)c(C(c2ccccc2)C(C)(C)C(=O)N2CC(C)OC(C)C2)c(OC)c1 (stereo not drawn) [Compound 150, reference compound] | – | – | % Remaining @ 60 min [2]: 6.79%; half-life at 1 μM [2]: 8 min; microsomal CLint at 1 μM [2]: 173 µL/min/mg
CC1CC(C)CN(C(=O)CC(c2ccc(-n3cncn3)cc2)c2ccc3c(c2)OCO3)C1 (stereo not drawn) [Compound 141, 3-(4-(1H-1,2,4-Triazol-1-yl)phenyl)-3-(benzo[d][1,3]dioxol-5-yl)-1-(3,5-dimethylpiperidin-1-yl)propan-1-one] | – | – | % Remaining @ 60 min [2]: 9.02%; stability compared with compounds 150 and 157 ([2]; HLM, Table 3 data): better or improved stability over the compounds with IDs 150 and 157; half-life at 1 μM [2]: 12.9 min; microsomal CLint at 1 μM [2]: 108 µL/min/mg
COc1cc(O)c(C(CC(=O)N2C[C@H](C)C[C@H](C)C2)c2cnccn2)c(OC)c1 (stereo partly drawn) [Compound 204, 1-(3,5-Dimethylpiperidin-1-yl)-3-(4,6-dimethoxy-2-hydroxy-phenyl)-3-(pyrazin-2-yl)propan-1-one] | – | – | IC50 ([1]; Table 1A): 1000 to 10000 nM
COc1cc(O)c(C(CC(=O)N2CCCC(C)C2)c2cccs2)c(OC)c1 (stereo not drawn) [Compound 70] | 95% | 1000 to 10000 nM | –
COc1cc(O)c(C(CC(=O)N2C[C@H](C)C[C@H](C)C2)c2ccc(OC)nc2)c(OC)c1 (stereo partly drawn) [Compound 206, 1-(3,5-Dimethylpiperidin-1-yl)-3-(4,6-dimethoxy-2-hydroxy-phenyl)-3-(2-methoxypyrid-5-yl)propan-1-one] | – | – | IC50 ([1]; Table 1A): < 1000 nM
COc1cc(O)c(C(CC(=O)N2CC(C)C[C@@H](C)C2)c2nc3ccccc3s2)c(OC)c1 (stereo in doubt) [Compound 205, 1-(3,5-Dimethylpiperidin-1-yl)-3-(4,6-dimethoxy-2-hydroxy-phenyl)-3-(benzothiazol-2-yl)propan-1-one] | – | – | IC50 ([1]; Table 1A): < 1000 nM
CC1CC(C)CN(C(=O)CC(c2ccc3c(c2)OCO3)c2c(O)ccc3cccnc23)C1 (stereo not drawn) [Compound 146] | – | 1000 to 10000 nM | –
COc1c(C(CC(=O)N2CC(C)CC(C)C2)c2ccc3c(c2)OCO3)c(O)cc2occc12 (stereo not drawn) [Compound 139] | 94.5% | 1000 to 10000 nM | –
COc1ccc2ccccc2c1C(c1ccc(F)cc1)C(C)(C)C(=O)N1CC(C)CC(C)C1 (stereo not drawn) [Compound 157, reference compound] | – | – | % Remaining @ 60 min [2]: 6.78%; half-life at 1 μM [2]: 6.9 min; microsomal CLint at 1 μM [2]: 201 µL/min/mg

Second part, led by results:

Emax ([1]; Table 1) | IC50 ([1]; Table 1) | SMILES | also measured
96.7% | 1000 to 10000 nM | COc1cc(O)c(C(CC(=O)N2CC(C)CC(C)C2)c2ccc(C(N)=O)cc2)c(OC)c1 (stereo not drawn) [Compound 111] | –
93.6% | < 1000 nM | COc1cc(O)c(C(CC(=O)N2CC(C)CC(C)C2)c2ccc(C(C)=O)cc2)c(OC)c1 (stereo not drawn) [Compound 100, 3-(4-Acetylphenyl)-1-(3,5-dimethylpiperidin-1-yl)-3-(2-hydroxy-4,6-dimethoxyphenyl)propan-1-one] | –
87% | < 1000 nM | COc1cc(OC)c(C(CC(=O)N2C[C@H](C)C[C@H](C)C2)c2ccc(C(=O)O)cc2)c(OC)c1 (stereo partly drawn) [Compound 201, 4-(3-(3,5-cis-Dimethylpiperidin-1-yl)-3-oxo-1-(2,4,6-trimethoxyphenyl)-propyl)benzoic acid] | –
– | 1000 to 10000 nM | COc1cc(O)c(C(CC(=O)N2CC(C)CC(C)C2)c2ccc(C(=O)NC3CC3)cc2)c(OC)c1 (stereo not drawn) [Compound 95] | –
93.8% | 1000 to 10000 nM | COc1cc(O)c(C(CC(=O)N2CC(C)CC(C)C2)c2cccc(S(C)(=O)=O)c2)c(OC)c1 (stereo not drawn) [Compound 83, 1-(3,5-Dimethylpiperidin-1-yl)-3-(2-hydroxy-4,6-dimethoxyphenyl)-3-(3-(methylsulfonyl)phenyl)propan-1-one] | –
96.9% | 1000 to 10000 nM | COc1cc(O)c(C(CC(=O)N2CC(C)CC(C)C2)c2cccnc2)c(OC)c1 (stereo not drawn) [Compound 106, 1-(3,5-Dimethylpiperidin-1-yl)-3-(2-hydroxy-4,6-dimethoxyphenyl)-3-(pyridin-3-yl)propan-1-one] | –
94.9% | 1000 to 10000 nM | COc1cc(O)c(C(CC(=O)N2CC(C)CC(C)C2)c2cccs2)c(OC)c1 (stereo not drawn) [Compound 107, 1-(3,5-Dimethylpiperidin-1-yl)-3-(2-hydroxy-4,6-dimethoxyphenyl)-3-(thiophen-2-yl)propan-1-one] | –
119% | 11000 to 50000 nM | COc1cc(O)c(C(CC(=O)N2CC(C)CC(C)C2)c2ccncc2)c(OC)c1 (stereo not drawn) [Compound 108, 1-(3,5-Dimethylpiperidin-1-yl)-3-(2-hydroxy-4,6-dimethoxyphenyl)-3-(pyridin-4-yl)propan-1-one] | –
103% | 11000 to 50000 nM | COc1cc(O)c(C(CC(=O)N2CC(C)CC(C)C2)c2ccc(S(=O)(=O)N(C)C)cc2)c(OC)c1 (stereo not drawn) [Compound 84] | –

Source: patent US9765063B2, “Amido compounds as RORγt modulators and uses thereof” (New York University, priority 2011, dated 2017)
